Measured values from patent US10150743B2, “Carboxylic acid compounds” (priority 2012, dated 2018).

Assays:
human TLR8 = human TLR8 (Homo sapiens (Human), UniProt Q9NR97); assay: Human TLR8 assay (TLR8/NF-kB/SEAPorter HEK 293 Cell Line); type: cell-based; conditions: SEAP induction, overnight incubation at 37° C., 0.1% DMSO; read-out: TLR8 pEC50 (converted)
Description: TLR8/NF-kB/SEAPorter™ HEK 293 Cell Line (Imgenex Corporation) is a stably co-transfected cell line which expresses full-length human TLR8 and the secreted alkaline phosphatase (SEAP) reporter gene under the transcriptional control of an NF-κB response element. TLR8 expression in this cell line has been tested by flow cytometry. Transfectants with stable expression were selected using the antibiotic blasticidin and geneticin. TLR signaling leads to the translocation of NF-κB and activation of the promoter results in expression of the SEAP gene. TLR8-specific activation was assessed by determining the level of SEAP produced following overnight incubation of the cells at 37° C. with the standard compound in the presence of 0.1% (v/v) dimethylsulfoxide (DMSO). Concentration dependent induction of SEAP production by compounds was expressed as the concentration of compound which produced half of the maximal level of SEAP induction for that compound (EC50).

Renca mouse tumour cells = assay: Tumour growth studies in Renca, a murine syngeneic renal carcinoma tumour model; type: in vivo; conditions: Balb/C mice, 3 mg/kg once a week p.o. on days 1, 8, 15; vs 0.5% methylcellulose; FIG. 10
Description: Experiments were conducted on female mice (Balb/C genotype, at least 5 weeks old). Renca mouse tumour cells (Cancer Chemother Pharmacol. 1995; 36 (1): 7-12) were kindly provided by Dr. T. Fujioka at Department of Urology, Iwate Medical University School of Medicine. Renca mouse tumour cells (5×10^4) were implanted subcutaneously in the flank of mice on day 0. Mice were treated with either drug vehicle (0.5% methylcellulose), the compound of Example 3 (0.3 mg/kg once a week) or the compound of Example 4 (3 mg/kg once a week) administered orally (p. o.) on days 1, 8, and 15. Tumour volumes were assessed at least twice weekly by bilateral vernier caliper measurements.
Tumour growth inhibition from the start of treatment was assessed by comparison of the differences in tumour growth rate between control and the compound of Example 3 treated groups, as shown in FIG. 9.
Tumour growth inhibition from the start of treatment was assessed by comparison of the differences in tumour growth rate between control and the compound of the Example 4 treated groups, as shown in FIG. 10.

CT26 mouse tumour cells = assay: Survival studies in CT26, a murine syngeneic colon carcinoma tumour model; type: in vivo; conditions: Balb/C mice; RT 2Gy x5 plus 5 mg/kg once a week i.v.; vs control or RT; FIG. 13
Description: Experiments were conducted on female mice (Balb/C genotype, at least 5 weeks old). CT26 mouse tumour cells (CRL-2638) were purchased from ATCC. CT26 mouse tumour cells (1×10^6) were implanted subcutaneously in the flank of mice on day 0. Mice in radiotherapy alone (RT) group and combination group were anesthetized and received radiation therapy (2Gy) at days 7, 8, 9, 10, and 11. Mice in combination group were also treated with a compound of Example 3 (30 mg/kg once a week) administered orally (p.o.) or Example 4 (5 mg/kg once a week) administered intravenously (i. v.) on days 7, 14, 22, and 27. Tumour volumes were assessed at least twice weekly by bilateral vernier caliper measurements. Survival period was determined by the time taken for tumours to reach 4 times the volume at the time of treatment.

human TLR7 = human TLR7 (Homo sapiens (Human), UniProt Q9NYK1); assay: Human TLR7 assay (SEAP reporter in HEK293); type: cell-based; conditions: SEAP induction, overnight incubation at 37° C., 0.1% DMSO; read-out: TLR7 (pEC50) (converted)
Description: Recombinant human TLR7 was stably expressed in a HEK293 cell line already stably expressing the pNiFty2-SEAP reporter plasmid; integration of the reporter gene was maintained by selection with the antibiotic zeocin. The most common variant sequence of human TLR7 (represented by the EMBL sequence AF240467) was cloned into the mammalian cell expression vector pUNO and transfected into this reporter cell-line. Transfectants with stable expression were selected using the antibiotic blasticidin. In this reporter cell-line, expression of secreted alkaline phosphatase (SEAP) is controlled by an NFkB/ELAM-1 composite promoter comprising five NFkB sites combined with the proximal ELAM-1 promoter. TLR signaling leads to the translocation of NFkB and activation of the promoter results in expression of the SEAP gene. TLR7-specific activation was assessed by determining the level of SEAP produced following overnight incubation of the cells at 37° C. with the standard compound in the presence of 0.1% (v/v) dimethylsulfoxide (DMSO). Concentration dependent induction of SEAP production by compounds was expressed as the concentration of compound which produced half of the maximal level of SEAP induction for that compound (EC50).

hERG potassium channel = hERG potassium channel (Homo sapiens (Human), UniProt Q12809); assay: hERG Analysis - Method 2 (QPATCH HT, CHO-hERG cells); type: cell-based; conditions: half-maximal inhibition concentration, 22±2° C.
Description: The hERG potassium current was measured in a hERG-stably-expressing Chinese hamster ovary K1 (CHO) cells. The experiments were performed using an automated planar patch-clamp system QPATCH HT (Sophion Bioscience A/S). The application of pressure for forming gigaseals and whole-cell patch clamp configuration were established using the QPATCH assay software. Patch-clamp experiments were performed in voltage-clamp mode and whole-cell currents were recorded from individual cells. The following stimulation protocol was applied to investigate the effects of compounds on hERG potassium channel: The membrane potential was held at −80 mV and repetitively (every 15 s) depolarized to +20 mV for 5 s after the pulse to −50 mV for 20 ms served to define the baseline, followed by repolarizing step to −50 mV for 5 s to evaluate of the tail current amplitude. Experiments were conducted at room temperature (22±2° C.).
Effects of compounds were determined from cumulative applications of increasing 4 concentrations and calculated as percent of blocked current. The data points were fitted with Hill equation to calculate half-maximal inhibition concentrations. The test solution includes: Extracellular solution (mM): 2 mM of CaCl2, 1 mM of MgCl2, 10 mM of HEPES, 4 mM of KCl, 145 mM of NaCl, and 10 mM of Glucose; and Intracellular solution (mM): 5.4 mM of CaCl2, 1.8 mM of MgCl2, 10 mM of HEPES, 31 mM of KOH, 10 mM of EGTA, 120 mM of KCl, and 4 mM of ATP.

Sequence of hERG potassium channel (Q12809 whole entry): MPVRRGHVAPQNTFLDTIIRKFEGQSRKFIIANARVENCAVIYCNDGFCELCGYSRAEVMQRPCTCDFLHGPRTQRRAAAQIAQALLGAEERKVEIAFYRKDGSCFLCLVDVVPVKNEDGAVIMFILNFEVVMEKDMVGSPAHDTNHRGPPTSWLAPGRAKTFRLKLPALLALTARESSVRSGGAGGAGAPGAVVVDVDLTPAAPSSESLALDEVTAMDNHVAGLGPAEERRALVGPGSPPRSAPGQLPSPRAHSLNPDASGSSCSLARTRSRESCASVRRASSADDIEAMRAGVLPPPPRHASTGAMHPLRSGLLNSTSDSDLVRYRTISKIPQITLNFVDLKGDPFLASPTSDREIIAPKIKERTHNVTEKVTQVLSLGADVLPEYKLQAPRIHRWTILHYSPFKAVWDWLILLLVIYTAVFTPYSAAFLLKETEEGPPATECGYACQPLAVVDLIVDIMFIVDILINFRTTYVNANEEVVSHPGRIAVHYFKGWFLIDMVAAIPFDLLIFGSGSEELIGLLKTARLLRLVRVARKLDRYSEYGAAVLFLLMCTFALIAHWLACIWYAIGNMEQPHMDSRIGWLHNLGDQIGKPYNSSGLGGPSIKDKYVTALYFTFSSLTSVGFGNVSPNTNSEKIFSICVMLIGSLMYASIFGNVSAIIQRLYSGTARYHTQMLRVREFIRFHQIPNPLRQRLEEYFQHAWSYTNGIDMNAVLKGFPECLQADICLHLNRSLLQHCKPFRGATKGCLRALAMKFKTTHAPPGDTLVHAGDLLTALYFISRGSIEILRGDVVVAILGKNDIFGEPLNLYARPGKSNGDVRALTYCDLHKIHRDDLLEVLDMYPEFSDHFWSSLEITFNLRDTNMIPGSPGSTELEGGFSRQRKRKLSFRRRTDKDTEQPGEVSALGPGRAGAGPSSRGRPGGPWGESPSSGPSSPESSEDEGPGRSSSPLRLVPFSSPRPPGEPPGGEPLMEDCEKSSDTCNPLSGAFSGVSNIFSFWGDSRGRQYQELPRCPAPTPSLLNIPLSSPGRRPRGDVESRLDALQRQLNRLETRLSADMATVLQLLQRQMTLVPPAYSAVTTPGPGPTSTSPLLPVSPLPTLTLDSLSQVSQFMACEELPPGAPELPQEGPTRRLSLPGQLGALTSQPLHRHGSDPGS
Sequence of human TLR7 (Q9NYK1 27-1049): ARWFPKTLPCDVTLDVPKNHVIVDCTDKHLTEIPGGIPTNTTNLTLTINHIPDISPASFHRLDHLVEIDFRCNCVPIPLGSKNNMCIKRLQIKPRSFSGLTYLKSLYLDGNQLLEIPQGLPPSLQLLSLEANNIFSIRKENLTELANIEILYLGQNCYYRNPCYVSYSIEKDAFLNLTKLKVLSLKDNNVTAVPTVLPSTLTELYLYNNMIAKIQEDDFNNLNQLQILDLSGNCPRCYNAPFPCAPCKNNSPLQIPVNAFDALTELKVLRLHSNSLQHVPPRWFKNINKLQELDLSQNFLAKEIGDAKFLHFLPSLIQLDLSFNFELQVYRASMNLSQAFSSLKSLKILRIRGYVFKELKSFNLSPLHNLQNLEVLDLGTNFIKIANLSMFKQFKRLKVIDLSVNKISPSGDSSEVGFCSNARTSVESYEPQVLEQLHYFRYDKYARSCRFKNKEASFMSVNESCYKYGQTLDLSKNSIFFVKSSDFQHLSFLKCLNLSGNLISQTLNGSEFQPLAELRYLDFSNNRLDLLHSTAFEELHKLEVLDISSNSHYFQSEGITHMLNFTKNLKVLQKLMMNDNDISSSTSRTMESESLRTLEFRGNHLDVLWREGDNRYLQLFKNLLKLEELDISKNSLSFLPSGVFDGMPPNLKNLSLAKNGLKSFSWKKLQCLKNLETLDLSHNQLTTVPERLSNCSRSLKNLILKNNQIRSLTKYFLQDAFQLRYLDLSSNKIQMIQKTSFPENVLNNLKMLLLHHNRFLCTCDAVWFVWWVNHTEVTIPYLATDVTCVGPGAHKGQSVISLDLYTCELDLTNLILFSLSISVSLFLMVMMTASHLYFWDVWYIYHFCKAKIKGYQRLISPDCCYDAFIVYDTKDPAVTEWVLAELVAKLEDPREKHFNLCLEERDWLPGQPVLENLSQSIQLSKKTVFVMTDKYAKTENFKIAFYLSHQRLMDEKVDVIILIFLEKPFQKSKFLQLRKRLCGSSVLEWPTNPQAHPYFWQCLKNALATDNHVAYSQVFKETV
Sequence of human TLR8 (Q9NR97 27-1041): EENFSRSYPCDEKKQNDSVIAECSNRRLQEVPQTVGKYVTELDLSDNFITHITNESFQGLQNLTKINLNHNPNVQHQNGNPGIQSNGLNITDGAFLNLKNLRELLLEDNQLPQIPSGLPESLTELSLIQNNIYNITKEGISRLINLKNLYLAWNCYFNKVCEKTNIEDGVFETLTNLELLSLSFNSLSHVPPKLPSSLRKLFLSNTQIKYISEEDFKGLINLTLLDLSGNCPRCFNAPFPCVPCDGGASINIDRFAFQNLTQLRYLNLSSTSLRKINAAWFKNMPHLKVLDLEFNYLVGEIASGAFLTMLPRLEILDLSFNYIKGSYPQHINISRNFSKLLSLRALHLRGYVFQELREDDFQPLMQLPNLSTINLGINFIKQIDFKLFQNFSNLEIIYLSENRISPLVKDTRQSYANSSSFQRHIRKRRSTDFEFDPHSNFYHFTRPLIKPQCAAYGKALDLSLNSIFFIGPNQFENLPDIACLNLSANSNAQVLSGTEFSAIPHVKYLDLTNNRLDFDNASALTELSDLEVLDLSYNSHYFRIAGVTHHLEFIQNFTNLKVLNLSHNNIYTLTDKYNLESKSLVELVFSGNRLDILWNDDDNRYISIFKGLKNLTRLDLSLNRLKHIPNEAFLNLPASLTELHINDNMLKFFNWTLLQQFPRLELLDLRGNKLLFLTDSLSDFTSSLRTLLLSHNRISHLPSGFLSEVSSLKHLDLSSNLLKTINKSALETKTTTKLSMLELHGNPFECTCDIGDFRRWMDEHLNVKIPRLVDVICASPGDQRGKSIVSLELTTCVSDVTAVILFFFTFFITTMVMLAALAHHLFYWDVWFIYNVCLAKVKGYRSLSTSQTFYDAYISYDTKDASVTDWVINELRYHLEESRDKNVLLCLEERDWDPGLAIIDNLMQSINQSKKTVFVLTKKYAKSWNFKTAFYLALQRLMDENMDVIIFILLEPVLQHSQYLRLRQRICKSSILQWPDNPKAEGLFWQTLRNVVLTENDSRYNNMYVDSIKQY

CCC[C@@H](CCO)Nc1nc(N)nc(C)c1Cc1ccc(CN(CC(=O)O)CC(F)(F)F)cc1OC [Example 4, (S)-2-((4-((2-amino-4-(1-hydroxyhexan-3-ylamino)-6-methylpyrimidin-5-yl)methyl)-3-methoxybenzyl)(2,2,2-trifluoroethyl)amino)acetic acid]
EC50 (human TLR8): > 10 µM
Tumour growth inhibition (Renca mouse tumour cells): inhibited tumour growth
Survival period (time for tumours to reach 4 times the volume at treatment) (CT26 mouse tumour cells): survived significantly longer
EC50 (human TLR7): 0.1 µM
IC50 (hERG potassium channel): > 10 µM
